Measured values published in patent US6583106B2, “Monohydric alcohol derived urethanes and their use in cosmetic formulations” (Alzo International, Inc., priority 1997, dated 2003).

Assay: Urethane stability study (hydroxyl value after heat/reflux and pH variation)
Assay type: physicochemical
Settings: before treatment; A.O.C.S. hydroxyl value method
Experimental: (§1) The following stability study was conducted to determine the structural stability of dimeric urethane compounds according to the present invention compared to mono- and diesters under conditions of pH and thermal variation. Because the decomposition products of the mono- and diesters are alcohol and acid, the degree of decomposition may be accurately determined by measuring the acid value. The measurable decomposition product of the urethane compound is alcohol, which is accurately measured by determining the hydroxyl value.
IV. Procedure for Urethane Stability
The following steps were performed on each urethane sample:
(1) Run hydroxyl value test.
(2) Follow steps 2-8 for mono- and diester (above).
(3) Run hydroxyl value test on solution in beaker A.
(4) Perform step 10, from above.
(5) Run hydroxyl value test on solution in Beaker B and Beaker C.
Under conditions of this study, that is,
“A”: Product in alcoholic/water solution, heat
“B”: Product in alcoholic/water solution, heat, pH=2.5-3.5
“C”: Product in alcoholic/water solution, heat, pH=13-14

Compound	HYDROXYL V INITIAL
Octyl dodecanol dimer with IPDI [Monoderm I-20]	16.1 mg KOH/g
Isocetyl alcohol dimer with IPDI [Monoderm I-16]	7.3 mg KOH/g
Isostearyl alcohol dimer with IPDI [Monoderm I-18]	5.3 mg KOH/g
CCCCC(CC)COC(=O)NCC1(C)CC(NC(=O)OCC(CC)CCCC)CC(C)(C)C1 (stereo not drawn) [Monoderm I-8, 2-ethyl hexanol dimer with IPDI]	10.3 mg KOH/g

Assay: Mono- and diester stability study (acid value after heat/reflux and pH variation)
Assay type: physicochemical
Settings: before treatment; A.O.C.S. T.M. #Cd 3a-63
Experimental: as §1
III. Procedure for Determining Mono- or Diester Stability
The following steps were performed on each ester sample:
(2) Into three ground glass Erlenmeyer flasks, weigh a 20 g sample of the ester.
(3) Into each flask, pipette 50 ml of a neutralized (to phenolpthalein end point) Solution of 70% Isopropanol in water. Boiling stones are added.
(4) Connect flask A to a 4-5 ft. Reflux condenser and heat so that it refluxes 1 ft. High (to approximately 80-90° C.). After connecting flasks A, B and C, proceed to step (7).
(5) Add 10% Aq. Hcl solution to adjust pH of solution in flask B to pH=2.5-3.5. See step (4).
(6) Add 20% Aq. KOH Solution to adjust pH of solution in Flask C to pH=13-14. See step (4).
(8) For each flash, A, B and C, disconnect condenser. Pour Alcoholic solution into wide diameter beaker (A, B and C). Add spin bar. […]

Compound	ACID V INITIAL
CC(C)OC(=O)CCCCC(=O)OC(C)C [DIA, Diisopropyl adipate]	0.26 mg KOH/g
Diisopropyl dilinoleate [DID]	0.32 mg KOH/g
